{"source": "patent US20250255843A1", "about": "“COMPOSITIONS COMPRISING CYSTEINE PRODRUGS AND METHODS USING THEREOF” (Nature's Fusions, LLC, priority 2022, published 2025)", "origin": "cited, not measured here", "key": {"[1]": {"settings": "in vivo"}, "[2]": {"settings": "more stable than cysteine"}, "[3]": {"settings": "cell membrane"}, "[4]": {"settings": "oral; metabolized in liver and kidney"}, "oxidative damage": {"tested_on": "oxidative damage", "settings": "relative to NAC"}}}
{"smiles": "CC(=O)N[C@@H](CS)C(=O)O", "note": "[NAC, N-acetyl L-cysteine]", "values": [{"measurement": "bioavailability", "setting": "[1]", "result": "4-6%"}, {"measurement": "increase of plasma", "setting": "plasma GSH; medium to high doses (up to 8 g/day)", "result": "5-20%"}, {"measurement": "stability relative to cysteine", "setting": "[2]", "result": "about 10 times"}, {"measurement": "membrane penetration", "setting": "[3]", "result": "poorly membrane penetrable"}, {"measurement": "detectability in plasma", "setting": "[4]", "result": "almost undetectable in plasma"}]}
{"smiles": "CCOC(=O)[C@H](CS)NC(C)=O", "note": "[NACET, N-acetyl L-cysteine ethyl ester]", "values": [{"measurement": "bioavailability", "setting": "[1]", "result": "60-80%"}, {"measurement": "increase of plasma GSH", "setting": "plasma GSH; lower than 8 g/day doses", "result": 250, "unit": "%"}, {"measurement": "protective agent against oxidative damage, concentration lower than that of NAC", "setting": "oxidative damage", "result": "5-10 times"}, {"measurement": "membrane penetration", "setting": "[3]", "result": "cell-permeable"}]}
